Experimental data reported in US20230183292A1, “IMMUNOMODULATORS” (priority 2020, published 2023).
Starred links: 1 amine or outer side, 2 acyl side, 3 side chain; linkers in the order of their positions; H or OH if unused. Positions of bridges follow the written chain, without caps; N, C: chain ends. Non-standard residues stand in square brackets, D forms with d. Residues, ends and D or L forms follow the SMILES beside them. Groups on a side chain read outwards from the residue. *: point of attachment. X5 = CC(C)CCC[C@@H](C)[C@H]1CC[C@H]2[C@@H]3CC[C@H]4C[C@@H](NC[C@H](N[*:1])C(=O)[*:2])CC[C@]4(C)[C@H]3CC[C@]12C; Cholesteryloxycarbonyl = CC(C)CCC[C@@H](C)[C@H]1CC[C@H]2[C@@H]3CC=C4C[C@@H](OC(=O)*)CC[C@]4(C)[C@H]3CC[C@]12C; Ursodeoxycholyl = C[C@H](CCC(=O)*)[C@H]1CC[C@H]2[C@@H]3[C@@H](O)C[C@@H]4C[C@H](O)CC[C@]4(C)[C@H]3CC[C@]12C; X17 = C[C@H](CCC(=O)O)[C@H]1CC[C@H]2[C@@H]3CC[C@@H]4CC(NC[C@H](N[*:1])C(=O)[*:2])CC[C@]4(C)[C@H]3CC[C@]12C; Cholyl = C[C@H](CCC(=O)*)[C@H]1CC[C@H]2[C@@H]3[C@H](O)C[C@@H]4C[C@H](O)CC[C@]4(C)[C@H]3C[C@H](O)[C@]12C; X27 = O=C(Cn1cc(C[C@H](N[*:1])C(=O)[*:2])c2ccccc21)Oc1ccccc1; Trp(1-CH2COOH) = N[C@@H](Cc1cn(CC(=O)O)c2ccccc12)C(=O)O; X32 = CCCNC(=O)Cn1cc(C[C@H](N[*:1])C(=O)[*:2])c2ccccc21; X1 = NCCNC(=O)Cn1cc(C[C@H](N[*:1])C(=O)[*:2])c2ccccc21; Pro(4R-Me) = C[C@H]1CN[C@H](C(=O)O)C1; Hyp = O=C(O)[C@@H]1C[C@@H](O)CN1; NMeNle = CCCC[C@H](NC)C(=O)O; NMeA = CN[C@@H](C)C(=O)O; Dab = NCC[C@H](N)C(=O)O; Dap = NC[C@H](N)C(=O)O

biological target: T1, PD-1/PD-L1 (Homo sapiens, UniProt Q9NZQ7); assay: PD-1/PD-L1 Homogenous Time-Resolved Fluorescence (HTRF) binding assay; conditions: HTRF IC50, PD-L1-His 10 nM, PD-1-Ig 20 nM
T1 construct: TVMV protease site (C); made in house; host or cells: HEK293T cells
Excerpt: The ability of the compounds of formula (I) to bind to PD-L1 was investigated using a PD-1/PD-L1 Homogenous Time-Resolved Fluorescence (HTRF) binding assay.
The interaction of PD-1 and PD-L1 can be assessed using soluble, purified preparations of the extracellular domains of the two proteins. The PD-1 and PD-L1 protein extracellular domains were expressed as fusion proteins with detection tags, for PD-1, the tag was the Fc portion of Immunoglobulin (PD-1-Ig) and for PD-L1 it was the 6 histidine motif (PD-L1-His). All binding studies were performed in an HTRF assay buffer consisting of dPBS supplemented with 0.1% […] bovine serum albumin and 0.05% (v/v) Tween-20. For the h/PD-L1-His binding assay, inhibitors were pre-incubated with PD-L1-His (10 nM final) for 15 m in 4 μl of assay buffer, followed by addition of PD-1-Ig (20 nM final) in 1 μl of assay buffer and further incubation for 15 m. HTRF detection was achieved using europium crypate-labeled anti-Ig (1 nM final) and allophycocyanin (APC) labeled anti-His (20 nM final). Antibodies were diluted in HTRF detection buffer and 5 μl was dispensed on top of the binding reaction. The reaction mixture was allowed to equilibrate for 30 minutes and the resulting signal (665 nm/620 nm ratio) was obtained using an EnVision fluorometer. Additional binding assays were established between the human proteins PD-1-Ig/PD-L2-His (20 & 5 nM, respectively) and CD80-His/PD-L1-Ig (100 & 10 nM, respectively).
Recombinant Proteins: Human PD-1 (25-167) with a C-terminal human Fc domain of immunoglobulin G (Ig) epitope tag [hPD-1 (25-167)-3S-IG] and human PD-L1 (18-239) with a C-terminal His epitope tag [hPD-L1(18-239)-TVMV-His] were expressed in HEK293T cells and purified sequentially by ProteinA affinity chromatography and size exclusion chromatography. Human PD-L2-His and CD80-His was obtained through commercial sources.
Table 1 lists the IC50 values for representative examples of this disclosure measured in the PD-1/PD-L1 Homogenous Time-Resolved Fluorescence (HTRF) binding assay.

T1 sequence (Q9NZQ7 18-239): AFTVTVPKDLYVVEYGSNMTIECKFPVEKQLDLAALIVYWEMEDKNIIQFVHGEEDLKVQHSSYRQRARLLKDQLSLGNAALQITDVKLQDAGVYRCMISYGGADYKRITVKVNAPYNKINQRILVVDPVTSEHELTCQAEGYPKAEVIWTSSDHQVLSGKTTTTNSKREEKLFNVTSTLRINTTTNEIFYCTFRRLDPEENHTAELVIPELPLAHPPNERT

Point of comparison: `CCCC[C@H]1C(=O)N(C)[C@@H](CCCC)C(=O)N[C@@H](CC(C)C)C(=O)N[C@H](C(=O)NCC(N)=O)CSCC(=O)N[C@@H](Cc2ccc(O)cc2)C(=O)N(C)[C@@H](C)C(=O)N[C@@H](CC(N)=O)C(=O)N2CCC[C@H]2C(=O)N[C@@H](CNC(=O)O[C@H]2CC[C@@]3(C)C(=CC[C@H]4[C@@H]5CC[C@H]([C@H](C)CCCC(C)C)[C@@]5(C)CC[C@@H]43)C2)C(=O)N[C@@H](CC(C)C)C(=O)N2C[C@H](O)C[C@H]2C(=O)N[C@@H](Cc2c[nH]c3ccccc23)C(=O)N[C@@H](CCN)C(=O)N[C@@H](Cc2cn(CC(=O)O)c3ccccc23)C(=O)N1C` [Example 1012] ({CH2CO}-Y[NMeA]NP[Dap](Cholesteryloxycarbonyl)L[Hyp]W[Dab][Trp(1-CH2COOH)][NMeNle][NMeNle]LCG-NH2; thioether N-14), IC50 130 nM. Against it:
- CCCC[C@H]1C(=O)N(C)[C@@H](CCCC)C(=O)N[C@@H](CC(C)C)C(=O)N[C@H](C(=O)NCC(N)=O)CSCC(=O)N[C@@H](Cc2ccc(O)cc2)C(=O)N(C)[C@@H](C)C(=O)N[C@@H](CC(N)=O)C(=O)N2CCC[C@H]2C(=O)N[C@@H](CNC(=O)CNC(=O)CC[C@@H](C)[C@H]2CC[C@H]3[C@@H]4[C@H](O)C[C@@H]5C[C@H](O)CC[C@]5(C)[C@H]4C[C@H](O)[C@]23C)C(=O)N[C@@H](CC(C)C)C(=O)N2C[C@H](O)C[C@H]2C(=O)N[C@@H](Cc2c[nH]c3ccccc23)C(=O)N[C@@H](CCNC(=O)CNC(=O)CC[C@@H](C)[C@H]2CC[C@H]3[C@@H]4[C@H](O)C[C@@H]5C[C@H](O)CC[C@]5(C)[C@H]4C[C@H](O)[C@]23C)C(=O)N[C@@H](Cc2cn(CC(=O)Oc3ccccc3)c3ccccc23)C(=O)N1C [Example 2037] ({CH2CO}-Y[NMeA]NP[Dap]([Gly-Cholyl])L[Hyp]W[Dab]([Gly-Cholyl])[X27][NMeNle][NMeNle]LCG-NH2; thioether N-14) — 3.2-fold higher, 420 nM

same assay, conditions: PD-L1-His 10 nM, PD-1-Ig 20 nM; read-out: HTRF IC50

Point of comparison: `CCCC[C@H]1C(=O)N(C)[C@@H](CCCC)C(=O)N[C@@H](CC(C)C)C(=O)N[C@H](C(=O)NCC(N)=O)CSCC(=O)N[C@@H](Cc2ccc(O)cc2)C(=O)N(C)[C@@H](C)C(=O)N[C@@H](CC(N)=O)C(=O)N2CCC[C@H]2C(=O)N[C@@H](CNC(=O)CC[C@@H](C)[C@H]2CC[C@H]3[C@@H]4[C@H](O)C[C@@H]5C[C@H](O)CC[C@]5(C)[C@H]4C[C@H](O)[C@]23C)C(=O)N[C@@H](CC(C)C)C(=O)N2C[C@H](O)C[C@H]2C(=O)N[C@@H](Cc2c[nH]c3ccccc23)C(=O)N[C@@H](CCNC(=O)CC[C@@H](C)[C@H]2CC[C@H]3[C@@H]4[C@H](O)C[C@@H]5C[C@H](O)CC[C@]5(C)[C@H]4C[C@H](O)[C@]23C)C(=O)N[C@@H](Cc2cn(CC(=O)NCCC)c3ccccc23)C(=O)N1C` [Example 2023] ({CH2CO}-Y[NMeA]NP[Dap](Cholyl)L[Hyp]W[Dab](Cholyl)[X32][NMeNle][NMeNle]LCG-NH2; thioether N-14), IC50 660 nM. Against it:
- CCCC[C@H]1C(=O)N(C)[C@@H](CCCC)C(=O)N[C@@H](CC(C)C)C(=O)N[C@H](C(=O)NCC(N)=O)CSCC(=O)N[C@@H](Cc2ccc(O)cc2)C(=O)N(C)[C@@H](C)C(=O)N[C@@H](CC(N)=O)C(=O)N2CCC[C@H]2C(=O)N[C@@H](CNC(=O)CNC(=O)CC[C@@H](C)[C@H]2CC[C@H]3[C@@H]4[C@H](O)C[C@@H]5C[C@H](O)CC[C@]5(C)[C@H]4C[C@H](O)[C@]23C)C(=O)N[C@@H](CC(C)C)C(=O)N2C[C@H](C)C[C@H]2C(=O)N[C@@H](Cc2c[nH]c3ccccc23)C(=O)N[C@@H](CCNC(=O)CNC(=O)CC[C@@H](C)[C@H]2CC[C@H]3[C@@H]4[C@H](O)C[C@@H]5C[C@H](O)CC[C@]5(C)[C@H]4C[C@H](O)[C@]23C)C(=O)N[C@@H](Cc2cn(CC(=O)NCCC)c3ccccc23)C(=O)N1C [Example 2027] ({CH2CO}-Y[NMeA]NP[Dap]([Gly-Cholyl])L[Pro(4R-Me)]W[Dab]([Gly-Cholyl])[X32][NMeNle][NMeNle]LCG-NH2; thioether N-14) — 1.5-fold higher, 990 nM
- CCCC[C@H]1C(=O)N(C)[C@@H](CCCC)C(=O)N[C@@H](CC(C)C)C(=O)N[C@H](C(=O)NCC(N)=O)CSCC(=O)N[C@@H](Cc2ccc(O)cc2)C(=O)N(C)[C@@H](C)C(=O)N[C@@H](CC(N)=O)C(=O)N2CCC[C@H]2C(=O)N[C@@H](CNC(=O)CNC(=O)CC[C@@H](C)[C@H]2CC[C@H]3[C@@H]4[C@H](O)C[C@@H]5C[C@H](O)CC[C@]5(C)[C@H]4C[C@H](O)[C@]23C)C(=O)N[C@@H](CC(C)C)C(=O)N2C[C@H](C)C[C@H]2C(=O)N[C@@H](Cc2c[nH]c3ccccc23)C(=O)N[C@@H](CCNC(=O)CNC(=O)CC[C@@H](C)[C@H]2CC[C@H]3[C@@H]4[C@H](O)C[C@@H]5C[C@H](O)CC[C@]5(C)[C@H]4C[C@H](O)[C@]23C)C(=O)N[C@@H](Cc2cn(CC(=O)NCCN)c3ccccc23)C(=O)N1C [Example 2026] ({CH2CO}-Y[NMeA]NP[Dap]([Gly-Cholyl])L[Pro(4R-Me)]W[Dab]([Gly-Cholyl])[X1][NMeNle][NMeNle]LCG-NH2; thioether N-14) — 1.6-fold lower, 400 nM
- CCCC[C@H]1C(=O)N(C)[C@@H](CCCC)C(=O)N[C@@H](CC(C)C)C(=O)N[C@H](C(=O)NCC(N)=O)CSCC(=O)N[C@@H](Cc2ccc(O)cc2)C(=O)N(C)[C@@H](C)C(=O)N[C@@H](CC(N)=O)C(=O)N2CCC[C@H]2C(=O)N[C@@H](CNC2CC[C@@]3(C)[C@H](CC[C@@H]4[C@@H]3CC[C@]3(C)[C@@H]([C@H](C)CCC(=O)O)CC[C@@H]43)C2)C(=O)N[C@@H](CC(C)C)C(=O)N2C[C@H](O)C[C@H]2C(=O)N[C@@H](Cc2c[nH]c3ccccc23)C(=O)N[C@@H](CCN)C(=O)N[C@@H](Cc2cn(CC(=O)O)c3ccccc23)C(=O)N1C (stereo partly drawn) [Example 3007] ({CH2CO}-Y[NMeA]NP[X17]L[Hyp]W[Dab][Trp(1-CH2COOH)][NMeNle][NMeNle]LCG-NH2; thioether N-14) — 55-fold lower, 12 nM
- CCCC[C@H]1C(=O)N(C)[C@@H](CCCC)C(=O)N[C@@H](CC(C)C)C(=O)N[C@H](C(=O)NCC(N)=O)CSCC(=O)N[C@@H](Cc2ccc(O)cc2)C(=O)N(C)[C@@H](C)C(=O)N[C@@H](CC(N)=O)C(=O)N2CCC[C@H]2CN[C@@H](CNC(=O)CC[C@@H](C)[C@H]2CC[C@H]3[C@@H]4C(=O)C[C@@H]5CC(=O)CC[C@]5(C)[C@H]4CC(=O)[C@]23C)C(=O)N[C@@H](CC(C)C)C(=O)N2C[C@H](O)C[C@H]2C(=O)N[C@@H](Cc2c[nH]c3ccccc23)C(=O)N[C@@H](CCNC(=O)CC[C@@H](C)[C@H]2CC[C@H]3[C@@H]4C(=O)C[C@@H]5CC(=O)CC[C@]5(C)[C@H]4CC(=O)[C@]23C)C(=O)N[C@@H](Cc2cn(CC(=O)OC3CC3)c3ccccc23)C(=O)N1C [Example 2012] — 24-fold lower, 27 nM
- CCCC[C@H]1C(=O)N(C)[C@@H](CCCC)C(=O)N[C@@H](CC(C)C)C(=O)N[C@H](C(=O)NCC(N)=O)CSCC(=O)N[C@@H](Cc2ccc(O)cc2)C(=O)N(C)[C@@H](C)C(=O)N[C@@H](CC(N)=O)C(=O)N2CCC[C@H]2C(=O)N[C@@H](CNC(=O)CC[C@@H](C)[C@H]2CC[C@H]3[C@@H]4[C@@H](O)C[C@@H]5C[C@H](O)CC[C@]5(C)[C@H]4CC[C@]23C)C(=O)N[C@@H](CC(C)C)C(=O)N2C[C@H](C)C[C@H]2C(=O)N[C@@H](Cc2c[nH]c3ccccc23)C(=O)N[C@@H](CCNC(=O)CC[C@@H](C)[C@H]2CC[C@H]3[C@@H]4[C@@H](O)C[C@@H]5C[C@H](O)CC[C@]5(C)[C@H]4CC[C@]23C)C(=O)N[C@@H](Cc2cn(CC(=O)NCCN)c3ccccc23)C(=O)N1C [Example 2032] ({CH2CO}-Y[NMeA]NP[Dap](Ursodeoxycholyl)L[Pro(4R-Me)]W[Dab](Ursodeoxycholyl)[X1][NMeNle][NMeNle]LCG-NH2; thioether N-14) — within 1.5-fold, 460 nM
- CCCC[C@H]1C(=O)N(C)[C@@H](CCCC)C(=O)N[C@@H](CC(C)C)C(=O)N[C@H](C(=O)NCC(N)=O)CSCC(=O)N[C@@H](Cc2ccc(O)cc2)C(=O)N(C)[C@@H](C)C(=O)N[C@@H](CC(N)=O)C(=O)N2CCC[C@H]2C(=O)N[C@@H](CN[C@H]2CC[C@@]3(C)[C@@H](CC[C@@H]4[C@@H]3CC[C@]3(C)[C@@H]([C@H](C)CCCC(C)C)CC[C@@H]43)C2)C(=O)N[C@@H](CC(C)C)C(=O)N2C[C@H](O)C[C@H]2C(=O)N[C@@H](Cc2c[nH]c3ccccc23)C(=O)N[C@@H](CCN)C(=O)N[C@@H](Cc2cn(CC(=O)O)c3ccccc23)C(=O)N1C [Example 3008] ({CH2CO}-Y[NMeA]NP[X5]L[Hyp]W[Dab][Trp(1-CH2COOH)][NMeNle][NMeNle]LCG-NH2; thioether N-14) — 7.3-fold lower, 91 nM
